Data set [1] deals with MDR-K. pneumoniae. As to the kind of experiment: Resistance development study, serial passaging at sub-MIC. The format is cell-based, Klebsiella pneumoniae. The following applies: 14 passages over 2 weeks. On the procedure: (§1) The resistance development study was performed following the protocol published earlier. […] To compare the result, the last-resort gram-negative antibiotics, Polymyxin-B, and carbapenem type, Imipenem, were used in the study. According to the protocol elaborated for the MIC assay above, the MIC values of compounds and antibiotics were determined against corresponding bacteria overnight. The next day, a new MIC assay was performed where the bacterial suspension was prepared from the bacteria grown at the sub-MIC (MIC/2) of compound concentration of the first-day experiment. The next 14 continuous passages were repeated as described above. The resistance development was calculated as the fold increase of MIC by dividing MIC to the initial MIC values of every passage and then plotted against the passage number. These experiments were performed in triplicate.
(§2) MDR bacteria employ various strategies inherently or adaptively to build up resistance, which becomes a serious health concern. […] Bacteria were exposed to continuous serial passaging at the sub-MIC level over 2 weeks. Antibiotics imipenem and polymyxin-B were used as controls.

For data set [2], the system named is MDR-P. aeruginosa. The data set is described as above. The format is cell-based, Pseudomonas aeruginosa. Particulars: 14 passages over 2 weeks. As for the experimental part:
as §1, §2

The subject of data set [3] is mouse red blood cells (RBCs).
From the text: Hemolysis was given as HC50 where the concentration of a polymer causes 50% lysis of RBCs. […] RBC in PBS was used as the negative control to subtract any background signals.
The subject of data set [4] is MDR-P. aeruginosa biofilm. As to the kind of experiment: Biofilm eradication, quantification through bacterial cell viability. The format is cell-based, Pseudomonas aeruginosa. Particulars: 16×MIC. As for the experimental part: (§3) 18 mm glass coverslips were sterilized with flame after rinsing with ethanol. The bacterial biofilms were grown by following the previously published protocol. After the preparation of mid-log grown MDR-P. aeruginosa bacteria in TSB media, bacteria concentration was adjusted in NB with 1% (w/v) glucose and 1% (w/v) NaCl supplements to ˜10^5 CFU/mL. 2 mL of the diluted bacterial cell culture was used to fill the 6-well plate and 18 mm sterilized glass coverslips were added to each well. The plate was incubated at 37° C. for 72 h. After 72 h, 1×PBS (pH=7.4) was used to wash away unadhered planktonic bacteria. The carefully washed coverslips containing surface-attached biofilms were placed into a new 6-well sterile plate. Later, various concentration of 1-QAC-Hex (2 mL) was added into the wells and incubated for 24 h. Polymyxin-B was used as a control antibiotic. As a negative control, 2 mL of media was added without compound. The following three experiments were adjusted in the further steps as follows.
Once again, coverslips were washed with 1×PBS and transferred to another new, sterile plate. Afterward, 2 mL of trypsin-EDTA solution (diluted in saline at a 1:10 ratio) was added to each well and incubated for 15 min. Samples of 20 μL of each concentration were then 10-fold serially diluted in 1×PBS. […]

Data set [5] has as its system MDR-P. aeruginosa biofilm. As to the kind of experiment: Biofilm eradication, confocal fluorescence microscopy (SYTO 9/PI, Z-stack). The format is cell-based, Pseudomonas aeruginosa. As for the experimental part: as §3
Coverslips were washed with 1×PBS and left to dry for 2 min. MDR-P. aeruginosa biofilm was simultaneously stained with equal volumes of (5 μL) SYTO 9 (60 μM) and PI (15 μM) and was placed on the slide immediately followed by incubation in darkness for 15 min. The glass coverslips images on the slide were captured with a Zeiss LSM 410 Confocal Laser Scanning Microscope in 40× magnification. […]

The values below come from US20250360162A1, “Naphthoic Acid-Derived Polymers as Antimicrobial Agents” (UNIVERSITY OF SOUTH CAROLINA, priority 2024, published 2025).

Turning to `C[C@@H](O)[C@H]1C(=O)N2C(C(=O)O)=C(SCCN=CN)C[C@H]12` [imipenem], the “change in MIC after serial passaging” value in data set [1] and in data set [2] was 16 fold throughout.

As for Triton-X 100, the “lysis of RBCs” value in data set [3] was determined as 100%.

For the molecule polymyxin-B, in data set [4], the “killing of viable bacteria within the biofilm, in words” value was “unable to kill the viable bacteria protected within the biofilm”. In addition, the “change in MIC after serial passaging” value is reported as 16 fold in data set [1] and 8 fold in data set [2]. Also, the thickness of biofilm in data set [5] (16×MIC, control 9.96 μm) was determined as 9.03 μm. The “live/dead cells in biofilm after treatment” value in data set [5] (polymyxin-B 16×MIC, 3-QAC-Hex 16×MIC and 32×MIC) is given as “a large amount of live cells”.
